{"source": "paper PMC11233931", "about": "“Remodeling tumor‐associated macrophage for anti‐cancer effects by rational design of irreversible inhibition of mitogen‐activated protein kinase‐activated protein kinase 2” (MedComm, 2024)", "assay_in_all_cases": "Eurofins kinase selectivity profile against 380 other human recombinant kinases (Table S2)", "format_in_all_cases": "biochemical", "key": {"[1]": {"target": "T1, 380 human recombinant protein kinases (Homo sapiens, UniProt Q13043)", "T1 construct": "purchased Eurofins (Celle Lévescault)", "T1 sequence (Q13043 1-487)": "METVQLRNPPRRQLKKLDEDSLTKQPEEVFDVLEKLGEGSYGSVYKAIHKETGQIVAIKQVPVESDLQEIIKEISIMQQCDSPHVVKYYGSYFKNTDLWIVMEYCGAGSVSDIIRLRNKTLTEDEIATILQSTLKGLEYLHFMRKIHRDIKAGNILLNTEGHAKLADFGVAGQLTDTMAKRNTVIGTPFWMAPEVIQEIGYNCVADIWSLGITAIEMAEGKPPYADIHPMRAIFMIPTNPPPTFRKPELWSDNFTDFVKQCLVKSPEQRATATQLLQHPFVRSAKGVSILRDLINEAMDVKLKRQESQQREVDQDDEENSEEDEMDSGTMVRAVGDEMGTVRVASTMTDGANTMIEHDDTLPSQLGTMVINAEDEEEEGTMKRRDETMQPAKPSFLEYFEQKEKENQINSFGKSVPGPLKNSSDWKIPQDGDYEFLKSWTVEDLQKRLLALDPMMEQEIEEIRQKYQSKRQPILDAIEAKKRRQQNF", "details": "MST1(h), read-out: Inhibition rate", "procedure,_shortened": "(§1)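 Values come from a contract kinase-profiling service that tested the compound at multiple concentrations across 380 recombinant human kinases, as an off-target check against the MK2 activity.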"}, "[2]": {"target": "T2, 380 human recombinant protein kinases (Homo sapiens, UniProt Q8TDC3)", "T2 construct": "purchased Eurofins (Celle Lévescault)", "T2 sequence (Q8TDC3 1-778)": "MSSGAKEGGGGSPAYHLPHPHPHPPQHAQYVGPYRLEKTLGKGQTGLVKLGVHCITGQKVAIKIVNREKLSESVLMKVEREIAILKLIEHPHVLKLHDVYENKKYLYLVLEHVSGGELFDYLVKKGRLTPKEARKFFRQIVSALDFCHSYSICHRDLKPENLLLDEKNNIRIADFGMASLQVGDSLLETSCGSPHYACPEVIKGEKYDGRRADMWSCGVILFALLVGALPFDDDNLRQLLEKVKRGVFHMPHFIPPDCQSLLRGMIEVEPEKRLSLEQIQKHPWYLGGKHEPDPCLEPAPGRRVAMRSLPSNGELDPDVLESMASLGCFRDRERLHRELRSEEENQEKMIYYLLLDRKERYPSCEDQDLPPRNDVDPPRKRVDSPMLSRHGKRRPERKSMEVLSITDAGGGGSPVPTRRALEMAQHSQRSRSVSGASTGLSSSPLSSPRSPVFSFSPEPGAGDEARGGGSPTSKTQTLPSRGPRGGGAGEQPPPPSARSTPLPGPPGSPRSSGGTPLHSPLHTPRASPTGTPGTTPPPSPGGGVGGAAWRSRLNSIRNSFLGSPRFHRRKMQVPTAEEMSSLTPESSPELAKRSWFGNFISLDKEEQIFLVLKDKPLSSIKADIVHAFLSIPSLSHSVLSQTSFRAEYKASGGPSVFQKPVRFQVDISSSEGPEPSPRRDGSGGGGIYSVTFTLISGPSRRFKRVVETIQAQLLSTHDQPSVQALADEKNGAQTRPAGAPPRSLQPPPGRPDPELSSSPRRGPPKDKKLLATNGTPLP", "details": "BrSK1(h), read-out: Inhibition rate", "procedure,_shortened": "as §1"}, "[3]": {"target": "T3, 380 human recombinant protein kinases (Homo sapiens, UniProt Q9UKE5)", "T3 construct": "purchased Eurofins (Celle Lévescault)", "T3 sequence (Q9UKE5 whole entry)": "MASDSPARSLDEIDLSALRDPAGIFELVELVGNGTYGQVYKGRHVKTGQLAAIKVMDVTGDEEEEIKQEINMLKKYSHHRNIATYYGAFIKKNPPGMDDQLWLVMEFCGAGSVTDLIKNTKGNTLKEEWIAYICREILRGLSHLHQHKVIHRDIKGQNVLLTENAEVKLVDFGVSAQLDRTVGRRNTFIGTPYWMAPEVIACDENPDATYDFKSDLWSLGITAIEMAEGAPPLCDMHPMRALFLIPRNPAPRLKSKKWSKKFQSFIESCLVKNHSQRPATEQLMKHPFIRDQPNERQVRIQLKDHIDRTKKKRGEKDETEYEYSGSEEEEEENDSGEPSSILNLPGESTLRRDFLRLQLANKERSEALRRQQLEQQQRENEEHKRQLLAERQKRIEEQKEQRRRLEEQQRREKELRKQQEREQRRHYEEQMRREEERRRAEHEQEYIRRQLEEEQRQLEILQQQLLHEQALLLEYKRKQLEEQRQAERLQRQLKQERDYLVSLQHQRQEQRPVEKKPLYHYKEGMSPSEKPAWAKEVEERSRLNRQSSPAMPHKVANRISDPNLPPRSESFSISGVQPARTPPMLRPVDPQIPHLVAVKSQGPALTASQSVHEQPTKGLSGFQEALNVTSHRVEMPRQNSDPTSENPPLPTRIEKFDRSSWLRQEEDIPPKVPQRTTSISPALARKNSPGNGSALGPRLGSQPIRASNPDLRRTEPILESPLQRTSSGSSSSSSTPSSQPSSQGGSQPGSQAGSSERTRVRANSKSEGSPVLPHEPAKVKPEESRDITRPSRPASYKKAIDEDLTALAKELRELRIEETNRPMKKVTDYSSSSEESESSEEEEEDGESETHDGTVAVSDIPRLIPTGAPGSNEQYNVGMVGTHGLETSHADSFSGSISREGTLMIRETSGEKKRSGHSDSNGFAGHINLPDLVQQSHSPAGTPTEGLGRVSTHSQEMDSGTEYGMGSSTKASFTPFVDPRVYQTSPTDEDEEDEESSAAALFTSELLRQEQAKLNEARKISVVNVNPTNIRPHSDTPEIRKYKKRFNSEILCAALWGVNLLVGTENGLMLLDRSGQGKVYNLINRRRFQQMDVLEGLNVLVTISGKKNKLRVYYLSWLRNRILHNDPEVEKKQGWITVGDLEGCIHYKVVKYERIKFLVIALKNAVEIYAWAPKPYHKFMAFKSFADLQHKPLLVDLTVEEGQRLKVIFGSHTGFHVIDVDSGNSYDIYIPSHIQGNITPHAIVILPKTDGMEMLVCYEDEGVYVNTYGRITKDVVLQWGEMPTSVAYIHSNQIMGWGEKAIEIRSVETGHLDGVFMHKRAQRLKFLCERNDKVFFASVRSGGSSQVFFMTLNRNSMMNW", "details": "TNIK(h), read-out: Inhibition rate (%)", "procedure,_shortened": "as §1"}, "[4]": {"target": "T4, 380 human recombinant protein kinases (Homo sapiens, UniProt P49840)", "T4 construct": "purchased Eurofins (Celle Lévescault)", "T4 sequence (P49840 whole entry)": "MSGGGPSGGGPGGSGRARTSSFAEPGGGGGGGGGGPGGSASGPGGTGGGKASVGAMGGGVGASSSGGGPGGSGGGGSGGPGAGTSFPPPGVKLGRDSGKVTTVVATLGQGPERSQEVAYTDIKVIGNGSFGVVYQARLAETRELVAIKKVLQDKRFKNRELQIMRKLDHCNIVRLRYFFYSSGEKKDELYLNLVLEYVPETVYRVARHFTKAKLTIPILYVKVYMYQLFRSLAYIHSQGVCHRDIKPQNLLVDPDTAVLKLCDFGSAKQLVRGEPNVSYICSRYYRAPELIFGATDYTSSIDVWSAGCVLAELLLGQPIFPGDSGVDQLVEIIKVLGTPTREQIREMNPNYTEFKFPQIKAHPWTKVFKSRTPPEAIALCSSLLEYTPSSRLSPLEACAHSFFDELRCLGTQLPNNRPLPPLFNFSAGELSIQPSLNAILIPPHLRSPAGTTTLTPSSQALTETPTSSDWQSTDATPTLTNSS", "details": "GSK3α(h), read-out: Inhibition rate", "procedure,_shortened": "as §1"}, "[5]": {"target": "T5, 380 human recombinant protein kinases (Homo sapiens, UniProt O00443)", "T5 construct": "purchased Eurofins (Celle Lévescault)", "T5 sequence (O00443 whole entry)": "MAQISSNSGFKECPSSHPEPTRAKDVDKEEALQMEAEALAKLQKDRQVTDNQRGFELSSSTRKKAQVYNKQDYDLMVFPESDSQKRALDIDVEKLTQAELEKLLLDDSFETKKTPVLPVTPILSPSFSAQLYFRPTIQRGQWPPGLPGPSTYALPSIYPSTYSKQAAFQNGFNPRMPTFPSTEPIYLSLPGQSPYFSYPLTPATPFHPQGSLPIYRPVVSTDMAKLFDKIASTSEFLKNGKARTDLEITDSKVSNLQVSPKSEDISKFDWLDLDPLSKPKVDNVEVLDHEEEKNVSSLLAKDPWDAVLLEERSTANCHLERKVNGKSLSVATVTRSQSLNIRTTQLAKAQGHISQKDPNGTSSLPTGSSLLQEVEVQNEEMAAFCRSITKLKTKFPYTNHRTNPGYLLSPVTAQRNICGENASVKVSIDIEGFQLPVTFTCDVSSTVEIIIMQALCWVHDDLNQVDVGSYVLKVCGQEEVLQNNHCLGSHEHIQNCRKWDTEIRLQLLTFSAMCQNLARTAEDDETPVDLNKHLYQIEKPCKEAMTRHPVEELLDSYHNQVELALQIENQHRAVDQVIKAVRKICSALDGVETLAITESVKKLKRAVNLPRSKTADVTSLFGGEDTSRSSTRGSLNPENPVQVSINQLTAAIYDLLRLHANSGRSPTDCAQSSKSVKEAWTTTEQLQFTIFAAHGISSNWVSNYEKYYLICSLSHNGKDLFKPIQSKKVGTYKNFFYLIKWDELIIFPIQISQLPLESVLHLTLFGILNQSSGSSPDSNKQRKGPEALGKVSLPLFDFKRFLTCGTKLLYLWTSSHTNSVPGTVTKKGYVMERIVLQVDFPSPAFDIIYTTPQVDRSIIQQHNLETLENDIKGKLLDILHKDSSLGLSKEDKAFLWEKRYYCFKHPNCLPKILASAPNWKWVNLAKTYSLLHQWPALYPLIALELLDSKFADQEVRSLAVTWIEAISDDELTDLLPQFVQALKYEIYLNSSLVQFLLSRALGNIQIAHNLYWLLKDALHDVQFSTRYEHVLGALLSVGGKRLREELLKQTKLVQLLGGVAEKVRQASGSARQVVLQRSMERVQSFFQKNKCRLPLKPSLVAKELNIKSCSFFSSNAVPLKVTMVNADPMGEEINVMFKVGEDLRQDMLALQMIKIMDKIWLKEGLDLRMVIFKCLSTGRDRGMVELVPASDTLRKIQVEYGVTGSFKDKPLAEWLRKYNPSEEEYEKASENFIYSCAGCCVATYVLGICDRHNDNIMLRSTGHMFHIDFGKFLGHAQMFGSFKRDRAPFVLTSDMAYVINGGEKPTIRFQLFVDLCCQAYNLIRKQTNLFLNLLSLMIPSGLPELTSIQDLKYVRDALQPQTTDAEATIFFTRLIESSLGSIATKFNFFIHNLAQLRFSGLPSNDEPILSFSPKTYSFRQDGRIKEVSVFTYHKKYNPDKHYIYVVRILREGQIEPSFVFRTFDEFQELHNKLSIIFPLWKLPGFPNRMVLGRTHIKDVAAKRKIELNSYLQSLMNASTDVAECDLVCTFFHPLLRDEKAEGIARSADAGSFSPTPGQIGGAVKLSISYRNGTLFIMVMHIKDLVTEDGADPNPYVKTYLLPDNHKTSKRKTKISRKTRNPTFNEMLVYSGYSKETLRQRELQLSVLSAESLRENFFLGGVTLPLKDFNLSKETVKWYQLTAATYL", "details": "PI3KC2α(h), read-out: Inhibition rate (%)", "procedure,_shortened": "as §1"}}}
{"molecule": "C=CC(=O)Nc1cc(-c2cc(-c3cc4c([nH]3)CCNC4=O)ccn2)ccc1OC(F)(F)F", "note": "[compound 11]", "values": [{"measurement": "inhibition at 0.01 µM", "setting": "[1]; 10 nM", "result": -1, "unit": "%"}, {"measurement": "inhibition at 0.1 µM", "setting": "[1]; 100 nM", "result": -9, "unit": "%"}, {"measurement": "inhibition at 1 µM", "setting": "[1]; 1000 nM", "result": 0, "unit": "%"}, {"measurement": "inhibition at 0.01 µM", "setting": "[2]; 10 nM", "result": -7, "unit": "%"}, {"measurement": "inhibition at 0.1 µM", "setting": "[2]; 100 nM", "result": -3, "unit": "%"}, {"measurement": "inhibition at 1 µM", "setting": "[2]; 1000 nM", "result": 17, "unit": "%"}, {"measurement": "inhibition at 0.01 µM", "setting": "[3]; 10 nM", "result": -12, "unit": "%"}, {"measurement": "inhibition at 0.1 µM", "setting": "[3]; 100 nM", "result": 9, "unit": "%"}, {"measurement": "inhibition at 1 µM", "setting": "[3]; 1000 nM", "result": 42, "unit": "%"}, {"measurement": "inhibition at 0.01 µM", "setting": "[4]; 10 nM", "result": 15, "unit": "%"}, {"measurement": "inhibition at 0.1 µM", "setting": "[4]; 100 nM", "result": -9, "unit": "%"}, {"measurement": "inhibition at 1 µM", "setting": "[4]; 1000 nM", "result": 10, "unit": "%"}, {"measurement": "inhibition at 0.01 µM", "setting": "[5]; 10 nM", "result": -4, "unit": "%"}, {"measurement": "inhibition at 0.1 µM", "setting": "[5]; 100 nM", "result": -2, "unit": "%"}, {"measurement": "inhibition at 1 µM", "setting": "[5]; 1000 nM", "result": -5, "unit": "%"}]}
